Experimental data published in patent US20230183224A1, “BEZOXAZINE DERIVATIVES USEFUL AS MONOACYLGLYCEROL LIPASE INHIBITORS” (Hoffmann-La Roche Inc., priority 2017, published 2023).

Target: T1, MAGL (recombinant wild-type) (Homo sapiens, UniProt Q99685)
T1 sequence (Q99685 1-303): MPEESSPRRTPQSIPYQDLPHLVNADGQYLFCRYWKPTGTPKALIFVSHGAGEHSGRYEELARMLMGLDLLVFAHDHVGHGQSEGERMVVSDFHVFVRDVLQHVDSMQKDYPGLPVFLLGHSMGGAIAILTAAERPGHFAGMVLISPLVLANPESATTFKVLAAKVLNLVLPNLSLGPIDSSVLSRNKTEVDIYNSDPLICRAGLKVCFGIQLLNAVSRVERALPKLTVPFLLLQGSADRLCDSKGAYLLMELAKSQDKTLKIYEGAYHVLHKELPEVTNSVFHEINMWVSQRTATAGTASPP
Assay: MAGL inhibitory activity, hydrolysis of 4-nitrophenylacetate to 4-nitrophenol (absorbance at 405 nm)
Assay type: biochemical
Settings: 1 nM MAGL, 300 μM 4-nitrophenylacetate, 15 min preincubation at RT, slope of absorbance at 405 nm between 5 and 80 min
Description: Compounds were profiled for MAGL inhibitory activity by measuring the enzymatic activity of MAGL by following the hydrolysis of 4-nitorphenylacetate resulting in 4-nitrophenol, which absorbs at 405-412 nm (G. G. Muccioli, G. Labar, D. M. Lambert, Chem. Bio. Chem. 2008, 9, 2704-2710).
The assay was carried out in 384 well assay plates (black with clear bottom, non-binding surface treated, Corning Ref. 3655) in a total volume of 40 μL. Compound dilutions were made in 100% DMSO (VWR Chemicals 23500.297) in a polypropylene plate in 3-fold dilution steps to give a final concentration range in the assay from 25 μM to 1.7 nM. 1 μL compound dilutions (100% DMSO) were added to 19 μL MAGL (recombinant wild-type) in assay buffer (50 mM TRIS (GIBCO, 15567-027), 1 mM EDTA (Fluka, 03690-100 ml)). The plate was shaked for 1 min at 2000 rpm (Variomag Teleshake) and then incubated for 15 min at RT. To start the reaction, 20 μL 4-Nitrophenlyacetate (Sigma N-8130) in assay buffer with 6% EtOH was added. The final concentrations in the assay were 1 nM MAGL and 300 μM 4-Nitrophenylacetate. After shaking (1 m, 2000 rpm) and 5 min incubation at RT, the absorbance at 405 nm was measured for a first time (Molecular Devices, SpectraMax Paradigm). A second measurement was then done after incubation for 80 min at RT. From the two measurements, the slope was calculated by subtracting the first from the second measurement.

IC50: 2250 nM
Compound: O=C1COc2ccc(C(=O)N3CCN(Cc4ccc(C(F)(F)F)cc4)C(c4cc[nH]n4)C3)cc2N1 (stereo not shown) [Example 37, 6-[3-(1H-pyrazol-3-yl)-4-[[4-(trifluoromethyl)phenyl]methyl]piperazine-1-carbonyl]-4H-1,4-benzoxazin-3-one]
